Laboratory results reported in PubChem BioAssay AID1745844 (Carcinogenic Potency Database (CPDB), 2022).
Activity calls are given as the source filed them. No rule for the calls is given here.

Tested on: rodent lifetime carcinogenesis bioassay, tumor incidence TD50
Assay: carcinogenic potency in animals, long-term in vivo studies, CPDB compilation (AID 1745844)

`CC(C)OC(=O)COc1ccc(Cl)cc1Cl` was tested, and the TD50 (mouse, strain B6AKF1, females, oral dosing, site: any site (literature study), lesion: several types, types named in the paper, dosed 76 weeks, study length 76 weeks) was 83.2 mg/kg/day (inactive), the TD50 (mouse, strain B6AKF1, females, oral dosing, site: liver, lesion: hepatocellular carcinoma, dosed 76 weeks, study length 76 weeks) was 94.7 mg/kg/day (inactive) and the carcinogen call (mouse, strain B6AKF1, females, oral dosing, site: lung, lesion: adenoma, dosed 76 weeks, study length 76 weeks) was “negative (inactive)”. The carcinogen call (mouse, strain B6AKF1, males, oral dosing, site: any site (literature study), lesion: several types, types named in the paper, dosed 76 weeks, study length 76 weeks) was “negative (inactive)”, the carcinogen call (mouse, strain B6AKF1, males, oral dosing, site: liver, lesion: hepatoma, dosed 76 weeks, study length 76 weeks) was “negative (inactive)” and the carcinogen call (mouse, strain B6AKF1, males, oral dosing, site: lung, lesion: adenoma, dosed 76 weeks, study length 76 weeks) was “negative (inactive)”. The TD50 (mouse, strain B6C3F1, females, oral dosing, site: any site (literature study), lesion: several types, types named in the paper, dosed 76 weeks, study length 76 weeks) was 48.7 mg/kg/day (inactive), the TD50 (mouse, strain B6C3F1, females, oral dosing, site: liver, lesion: hepatoma, dosed 76 weeks, study length 76 weeks) was 100 mg/kg/day (inactive) and the TD50 (mouse, strain B6C3F1, females, oral dosing, site: lung, lesion: adenoma, dosed 76 weeks, study length 76 weeks) was 100 mg/kg/day (inactive). For the same compound, the TD50 (mouse, strain B6C3F1, males, oral dosing, site: any site (literature study), lesion: several types, types named in the paper, dosed 76 weeks, study length 76 weeks) was 16.4 mg/kg/day (inactive), the TD50 (mouse, strain B6C3F1, males, oral dosing, site: liver, lesion: hepatoma, dosed 76 weeks, study length 76 weeks) was 93.6 mg/kg/day (inactive) and the TD50 (mouse, strain B6C3F1, males, oral dosing, site: lung, lesion: adenoma, dosed 76 weeks, study length 76 weeks) was 21.3 mg/kg/day (inactive).
`CC(O)CN(N=O)C(=O)NCCCl` (stereo not drawn) showed a TD50 (rat, strain Fischer 344, females, by gavage, site: all sites, lesion: mononuclear-cell leukemia, dosed 40 weeks, study length 95 weeks) of 0.962 mg/kg/day, a TD50 (rat, strain Fischer 344, females, by gavage, site: liver, lesion: hepatocellular carcinoma, dosed 40 weeks, study length 95 weeks) of 8.81 mg/kg/day and a TD50 (rat, strain Fischer 344, females, by gavage, site: liver, lesion: neoplastic nodule, dosed 40 weeks, study length 95 weeks) of 0.885 mg/kg/day. For the same compound, the TD50 (rat, strain Fischer 344, females, by gavage, site: liver, lesion: several types, types named in the paper, dosed 40 weeks, study length 95 weeks) was 0.885 mg/kg/day, the TD50 (rat, strain Fischer 344, males, by gavage, site: liver, lesion: hepatocellular carcinoma, dosed 35 weeks, study length 120 weeks) was 2.71 mg/kg/day and the TD50 (rat, strain Fischer 344, males, by gavage, site: liver, lesion: neoplastic nodule, dosed 35 weeks, study length 120 weeks) was 1.17 mg/kg/day. The TD50 (rat, strain Fischer 344, males, by gavage, site: liver, lesion: several types, types named in the paper, dosed 35 weeks, study length 120 weeks) was 0.861 mg/kg/day and the TD50 (rat, strain Fischer 344, males, by gavage, site: lung, lesion: alveolar/bronchiolar tumor, dosed 35 weeks, study length 120 weeks) was 2.39 mg/kg/day.
For `C=C1C[C@@]23CC[C@H]4[C@@](C)(CCC[C@@]4(C)C(=O)O[C@@H]4O[C@H](CO)[C@@H](O)[C@H](O)[C@H]4O)[C@@H]2CC[C@]1(O[C@@H]1O[C@H](CO)[C@@H](O)[C@H](O)[C@H]1O[C@@H]1O[C@H](CO)[C@@H](O)[C@H](O)[C@H]1O)C3`, the TD50 (rat, strain F344/DuCrj, females, in feed, site: any site (literature study), lesion: several types, types named in the paper, dosed 104 weeks, study length 108 weeks) was 34400 mg/kg/day (inactive), the carcinogen call (rat, strain F344/DuCrj, females, in feed, site: liver, lesion: one or several types, types not named, dosed 104 weeks, study length 108 weeks) was “negative (inactive)” and the carcinogen call (rat, strain F344/DuCrj, males, in feed, site: any site (literature study), lesion: several types, types named in the paper, dosed 104 weeks, study length 108 weeks) was “negative (inactive)”. For the same compound, the carcinogen call (rat, strain F344/DuCrj, males, in feed, site: liver, lesion: hepatocellular adenoma, dosed 104 weeks, study length 108 weeks) was “negative (inactive)” and the TD50 (rat, strain F344/DuCrj, males, in feed, site: liver, lesion: hepatocellular carcinoma, dosed 104 weeks, study length 108 weeks) was 101000 mg/kg/day (inactive).
For `CC(=O)Nc1ccc(OCC(O)CNC(C)C)cc1` (stereo not drawn), the carcinogen call (mouse, strain AP Alderly Park, females, several routes, site: liver, lesion: one or several types, types not named, dosed 78 weeks, study length 78 weeks) was “negative (inactive)”, the carcinogen call (mouse, strain AP Alderly Park, females, several routes, site: lung, lesion: one or several types, types not named, dosed 78 weeks, study length 78 weeks) was “negative (inactive)” and the TD50 (mouse, strain AP Alderly Park, males, several routes, site: liver, lesion: one or several types, types not named, dosed 78 weeks, study length 78 weeks) was 24300 mg/kg/day (inactive). The TD50 (mouse, strain AP Alderly Park, males, several routes, site: lung, lesion: one or several types, types not named, dosed 78 weeks, study length 78 weeks) was 383 mg/kg/day (inactive), the carcinogen call (rat, strain Alpk:APfSD, females, in feed, site: liver, lesion: one or several types, types not named, dosed 104 weeks, study length 104 weeks) was “negative (inactive)” and the carcinogen call (rat, strain Alpk:APfSD, males, in feed, site: liver, lesion: one or several types, types not named, dosed 104 weeks, study length 104 weeks) was “negative (inactive)”. For the same compound, the TD50 (rat, strain Alpk:APfSD, males, in feed, site: pituitary gland, lesion: one or several types, types not named, dosed 104 weeks, study length 104 weeks) was 23.9 mg/kg/day (inactive) and the TD50 (rat, strain Alpk:APfSD, males, in feed, site: testis, lesion: one or several types, types not named, dosed 104 weeks, study length 104 weeks) was 194 mg/kg/day (inactive).
With `N[C@@H](CCC(=O)NNc1ccc(CO)cc1)C(=O)O` the TD50 (mouse, strain Swiss albino, females, in drinking water, site: liver, lesion: angiosarcoma, dosed 121 weeks, study length 121 weeks) was 2720 mg/kg/day, the TD50 (mouse, strain Swiss albino, females, in drinking water, site: lung, lesion: adenoma, dosed 121 weeks, study length 121 weeks) was 3290 mg/kg/day and the carcinogen call (mouse, strain Swiss albino, females, in drinking water, site: lung, lesion: several types, types named in the paper, dosed 121 weeks, study length 121 weeks) was “negative (inactive)”. For the same compound, the TD50 (mouse, strain Swiss albino, males, in drinking water, site: liver, lesion: angiosarcoma, dosed 120 weeks, study length 120 weeks) was 2040 mg/kg/day, the TD50 (mouse, strain Swiss albino, males, in drinking water, site: liver, lesion: hepatoma, dosed 120 weeks, study length 120 weeks) was 3310 mg/kg/day (inactive) and the carcinogen call (mouse, strain Swiss albino, males, in drinking water, site: lung, lesion: several types, types named in the paper, dosed 120 weeks, study length 120 weeks) was “negative (inactive)”.
`CC(C)(C)c1cc([N+](=O)[O-])cc([N+](=O)[O-])c1OS(C)(=O)=O` gave a TD50 (rat, strain Sprague-Dawley, females, in feed, site: any site (literature study), lesion: several types, types named in the paper, dosed 52 weeks, study length 52 weeks) of 2.66 mg/kg/day.
With `CC(=O)CN(N=O)C(N)=O` the TD50 (hamster, strain Syrian Golden, females, by gavage, site: spleen, lesion: all vascular tumors, dosed 40 weeks, study length 55 weeks) was 0.121 mg/kg/day, the TD50 (hamster, strain Syrian Golden, males, by gavage, site: spleen, lesion: hemangiosarcoma, dosed 40 weeks, study length 75 weeks) was 0.14 mg/kg/day and the TD50 (rat, strain Fischer 344, females, by gavage, site: kidney, lesion: mesenchymal neoplasm, dosed 30 weeks, study length 104 weeks) was 0.32 mg/kg/day. For the same compound, the TD50 (rat, strain Fischer 344, females, by gavage, site: liver, lesion: one or several types, types not named, dosed 30 weeks, study length 104 weeks) was 4.04 mg/kg/day and the TD50 (rat, strain Fischer 344, males, by gavage, site: kidney, lesion: mesenchymal neoplasm, dosed 30 weeks, study length 104 weeks) was 0.456 mg/kg/day.
With `Nc1cc(S(=O)(=O)O)cc2cc(S(=O)(=O)O)c(N=Nc3ccc(-c4ccc(N=Nc5c(S(=O)(=O)O)cc6cc(S(=O)(=O)O)cc(N)c6c5O)cc4)cc3)c(O)c12` the TD50 (rat, strain Fischer 344, females, in feed, site: any site (literature study), lesion: several types, types named in the paper, dosed 13 weeks, study length 13 weeks) was 3.21 mg/kg/day, the TD50 (rat, strain Fischer 344, females, in feed, site: liver, lesion: hepatocellular adenoma + hepatocellular carcinoma + neoplastic nodule, dosed 13 weeks, study length 13 weeks) was 3.21 mg/kg/day and the TD50 (rat, strain Fischer 344, females, in feed, site: liver, lesion: hepatocellular carcinoma + neoplastic nodule, dosed 13 weeks, study length 13 weeks) was 3.21 mg/kg/day. The TD50 (rat, strain Fischer 344, females, in feed, site: liver, lesion: hepatocellular carcinoma, dosed 13 weeks, study length 13 weeks) was 5.97 mg/kg/day, the TD50 (rat, strain Fischer 344, males, in feed, site: any site (literature study), lesion: several types, types named in the paper, dosed 13 weeks, study length 13 weeks) was 1.18 mg/kg/day and the TD50 (rat, strain Fischer 344, males, in feed, site: liver, lesion: hepatocellular adenoma + hepatocellular carcinoma + neoplastic nodule, dosed 13 weeks, study length 13 weeks) was 1.18 mg/kg/day. It also gave a TD50 (rat, strain Fischer 344, males, in feed, site: liver, lesion: hepatocellular carcinoma + neoplastic nodule, dosed 13 weeks, study length 13 weeks) of 1.18 mg/kg/day.
With `Nc1ccc(Nc2ccccc2)cc1` the carcinogen call (mouse, strain B6C3F1, females, in feed, site: any site (literature study), lesion: several types, types named in the paper, dosed 48 weeks, study length 91 weeks) was “negative (inactive)”, the carcinogen call (mouse, strain B6C3F1, males, in feed, site: any site (literature study), lesion: several types, types named in the paper, dosed 48 weeks, study length 91 weeks) was “negative (inactive)” and the TD50 (mouse, strain B6C3F1, males, in feed, site: liver, lesion: hepatocellular adenoma + hepatocellular carcinoma + neoplastic nodule, dosed 48 weeks, study length 91 weeks) was 213 mg/kg/day. For the same compound, the carcinogen call (rat, strain Fischer 344, females, in feed, site: any site (literature study), lesion: several types, types named in the paper, dosed 78 weeks, study length 104 weeks) was “negative (inactive)” and the TD50 (rat, strain Fischer 344, males, in feed, site: any site (literature study), lesion: several types, types named in the paper, dosed 78 weeks, study length 104 weeks) was 161 mg/kg/day (inactive).
In the case of `CCCCCCCC/C=C/CCCCCCCC(=O)OCCOCC(OCCO)C1OCC(OCCO)C1OCCO` (stereo not drawn), the TD50 (mouse, strain B6C3F1, females, in feed, site: any site (literature study), lesion: several types, types named in the paper, dosed 103 weeks, study length 104 weeks) is reported as 42900 mg/kg/day (inactive), the TD50 (mouse, strain B6C3F1, females, in feed, site: lung, lesion: alveolar/bronchiolar adenoma + alveolar/bronchiolar carcinoma, dosed 103 weeks, study length 104 weeks) is reported as 332000 mg/kg/day and the carcinogen call (mouse, strain B6C3F1, males, in feed, site: any site (literature study), lesion: several types, types named in the paper, dosed 103 weeks, study length 104 weeks) is reported as “negative (inactive)”. The TD50 (rat, strain Fischer 344, females, in feed, site: liver, lesion: hepatocellular adenoma + hepatocellular carcinoma + neoplastic nodule, dosed 103 weeks, study length 104 weeks) was 15800 mg/kg/day, the TD50 (rat, strain Fischer 344, females, in feed, site: liver, lesion: hepatocellular adenoma, dosed 103 weeks, study length 104 weeks) was 15800 mg/kg/day (inactive) and the TD50 (rat, strain Fischer 344, males, in feed, site: adrenal medulla, lesion: pheochromocytoma benign, bilateral + pheochromocytoma, malignant + pheochromocytoma, benign, dosed 99 weeks, study length 99 weeks) was 2580 mg/kg/day. It also gave a TD50 (rat, strain Fischer 344, males, in feed, site: any site (literature study), lesion: several types, types named in the paper, dosed 99 weeks, study length 99 weeks) of 3290 mg/kg/day and a TD50 (rat, strain Fischer 344, males, in feed, site: liver, lesion: hepatocellular adenoma + hepatocellular carcinoma + neoplastic nodule, dosed 99 weeks, study length 99 weeks) of 217000 mg/kg/day.
In the case of `C=C(F)F`, the TD50 (rat, strain Sprague-Dawley, females, by gavage, site: fat, lesion: lipoma, dosed 52 weeks, study length 141 weeks) is reported as 60.3 mg/kg/day, the TD50 (rat, strain Sprague-Dawley, females, by gavage, site: fat, lesion: liposarcoma, dosed 52 weeks, study length 141 weeks) is reported as 122 mg/kg/day and the TD50 (rat, strain Sprague-Dawley, males, by gavage, site: fat, lesion: liposarcoma, dosed 52 weeks, study length 141 weeks) is reported as 38.8 mg/kg/day.
